Experimental data published in patent publication EP1891105B1, “OXYNTOMODULIN ANALOGUES AND THEIR EFFECTS ON FEEDING BEHAVIOUR” (Imperial Innovations Limited, priority 2005, dated 2012).
“Also recorded” adds a separate entry of the source. Non-standard residues stand in square brackets, D forms with d. No end group written: not given here. *: point of attachment. Lauroyl = CCCCCCCCCCCC(=O)*

Columns and labels:
[1] = Food intake of fasted mice after injection of peptide; assay type: in vivo, C57BL/6 mice
Description: Animals: All animal procedures were approved by the British Home Office Animals (Scientific Procedures) Act 1986 (Project License number 70/5516). Male C57BL/6 mice and male Wistar rats were maintained in individual cages under controlled temperature (21-23 °C) with ad libitum access to standard chow (RM1 diet, SDS Ltd, Witham, Essex, UK) and to water. The light cycle was 14 hours light and 10 hours dark with 'dawn' at 07:00, lights full on at 07:30, 'dusk' at 21:00 with lights off at 21:30. These times were fixed in the animal facility.
All animals were handled almost daily for on average nine days prior to the first study. During the acclimatization period, each animal received two saline injections at least two days apart in order to further acclimatize to the procedure on the study days.
Intra-peritoneal (IP) injections: IP injections were administered to mice via a 0.5 ml syringe with a 29-gauge needle (maximum injection volume 0.1 ml). Maximum volume administered IP was 0.1 ml.
Study protocol: C57BL/6 mice (20-35 g) were injected with the peptide under investigation following a 20-hour fast Wistar rats were injected following a 24-hour fast. A pre-weighed quantity of chow was presented immediately after injection. The remaining food was measured at regular time intervals (e.g. 1, 2, 3,4, 6, 8, 24 and 48 hours following injection) and food intake calculated.

[2] = humans; intravenously infused; cited from earlier work
[3] = humans; 1.8 mg sc three times daily for 28 days; cited from earlier work
[4] = rats, cited from earlier work
[5] = Example 1, 2700 nmol/kg, intervals 0-32 h after injection, vs saline and oxm

D-His1,Ala2,Lys33,Ala38,Ala39,Lys40-lauroyl-oxm(ex15-23)(ex27-33) ([dH]AQGTFTSDYSKYLEEEAVRLFIQWLKNGGPSKNNIAAAK(Lauroyl))
food intake ([1]; Example 54, 10 nmol/kg): exception

DHis2-Ser2-Asp3-oxm(ex15-23)(ex27-33)-Lys33-Ala38,39-Glu40,41-Lys42-Lauroyl ([dH]SDGTFTSDYSKYLEEEAVRLFIQWLKNGGPSKNNIAAAEEK(Lauroyl)) [23/104]
food intake ([1]; Example 57, 6 or 20 nmol/kg): markedly decreased cumulative food intake in comparison to the saline control

Oxyntomodulin (HSQGTFTSDYSKYLDSRRAQDFVQWLMNTKRNRNNIA) [oxm, 37 amino acid peptide member of the glucagon superfamily]
food intake ([1]; Example 5, 2700nmol/kg, 0-4 h, vs oxm and saline): reduced food intake as expected | food intake ([1]; Example 7, 1000 nmol/kg, 0-24 h): did not quite reach statistical significance | Multiples of food inhibition Factor ([1]; Example 9, food intake during the first hour after injection, activity relative to oxm (1400 nmol/kg)): 1 | appetite [2]: effective appetite suppressant | body weight [3]: significant reduction of body weight | weight gain ([4]; chronic central administration): reduced weight gain | refeeding after a fast ([4]; intracerebroventricular and injection into paraventricular and arcuate nuclei): inhibits refeeding after a fast | body weight gain and adiposity ([4]; twice daily peripheral injections): reduced body weight gain and adiposity

oxm(xx15-18): human oxm with 4 amino acids at positions 15-18 replaced by substitute sequence (HSQGTFTSDYSKYLEEEAAQDFVQWLMNTKRNRNNIA)
food intake [1, 5]: increased and prolonged inhibition of food intake compared to both saline and oxm

oxm(xx15-21): human oxm with residues 15-21 replaced by corresponding exendin-4 residues (HSQGTFTSDYSKYLEEEAVRLFVQWLMNTKRNRNNIA)
food intake [1, 5]: greater and more prolonged appetite suppressant effect

B1: oxm(xx15-24): human oxm with residues 15-24 replaced by corresponding exendin-4 residues (peptide)
chain 1: HSQGTFTSDYSKYLEEEAVRLFIEWLMNTKRNRNNIA
chain 2: B1 chain 1
food intake [1, 5]: greater and more prolonged appetite suppressant effect; also recorded: more potent effect on feeding than oxm | food intake ([1]; Example 2, 300 nmol/kg, 0-24 h, vs exendin 4 and saline): reduces food intake only slightly less than exendin over the first 8 hours post-injection | food intake ([1]; Example 27, 100 nmol/kg): the most effective

B2: oxm(xx27-33): oxm with residues 27 to 33 replaced by the sequence Lys Asn Gly Gly Pro Ser Ser (peptide)
chain 1: HSQGTFTSDYSKYLDSRRAQDFVQWLKNGGPSSNNIA
chain 2: B2 chain 1
food intake ([1]; Example 3, 2700 nmol/kg, 0-24 h, vs oxm and saline): increased and prolonged inhibition of food intake compared to both saline and oxm
